Measurements: paper PMC11456916, “A screen for cell envelope stress uncovers an inhibitor of prolipoprotein diacylglyceryl transferase, Lgt, in Escherichiacoli” (iScience, 2024)
Like-named read-outs stand apart in the source and are kept apart here.

Legend:
[1] = test system: E. coli ΔtolC-pore; assay: Selection of spontaneous resistance mutants; assay type: cell-based; conditions: E. coli ΔtolC-pore plated on LB agar with 4×, 8× and 16× MIC
Description: The point mutations in Lgt were the only mutations identified in all five isolates (the Illumina sequencing and BreSeq alignment files have been made available in an online data repository, https://zenodo.org/records/11068394). Lgt catalyzes the essential transfer of diacylglycerol from phosphatidyl-glycerol (PG) to the terminal cysteine of pre-prolipoproteins[48] and was also identified as a possible target in our CRISPRi screen for rcsA bioreporter induction (Figures 2E and S3). When mapped to a recently solved crystal structure of E. coli Lgt,[49] the three distinct variants identified in our resistant clones (A37T, V109A, and G138A) were found on three proximal α-helices in the substrate binding pocket of the enzyme (Figure 4B).
A culture of E. coli ΔtolC-pore was grown overnight in LB broth at 37°C with shaking, then, ∼6 × 10^8 CFU in 100 μL of LB broth was plated on LB agar plates containing 4, 8, or 16 μg/mL of MAC-0452936. Plates were then incubated at 37°C, and examined every 24 h for the emergence of resistant colonies. Colonies began to emerge after 48 h of incubation and were purified by restreaking on LB agar and LB agar containing the same concentrations of MAC-0452936 from which the colonies originally appeared. […] DNA samples were sequenced on the Illumina MiSeq platform (SeqCenter LLC) and reads were aligned to the E. coli BW25113 reference genome using Breseq[77] […]

[2] = test system: E. coli ΔtolC-pore; assay: Live cell fluorescence microscopy, cell width; assay type: cell-based; conditions: increasing concentrations, 1 h, DAPI and FM4-64 stain
Description: Figure 4 MAC-0452936 inhibited prolipoprotein diacylglyceryl transferase, Lgt (A) Growth inhibition of E. coli ΔtolC-pore, three independent MAC-0452936 resistance mutants with a V109A substitution in Lgt (2,959,071A→G), a mutant with an A37T substitution (2,959,288C→T), and a mutant with a G138A substitution (2,958,984C→G). The experiment was conducted in biological triplicate. Data are represented as mean ± SEM. (B) Structure of Lgt from E. coli with two phosphatidyl-glycerol (PG) moieties bound (PDB: 5AZB).[49] Mutated residues from spontaneous resistance mutants are highlighted in blue on proximal α-helices, with the blue sphere highlighting the space in between the mutated residues where both PG moieties reside. […] The width of at least 240 cells was measured at each MAC-0452936 concentration, with specific n values for each concentration of MAC-0452936 listed in the figure. […]
An overnight culture of E. coli ΔtolC-pore was prepared, then diluted (1:100) into fresh LB media and grown to the mid-exponential phase of growth (OD600 ∼0.5). […] Samples were imaged using a Nikon Eclipse Ti inverted microscope at 100× magnification, with a minimum of 200 cells counted per image. Images were quantified with ImageJ, using the following macro. […]

[3] = test system: E. coli CFT073; assay: MIC assay with or without SPR741, E. coli CFT073; assay type: cell-based; conditions: Escherichia coli
Description: (§1) We next sought to determine whether we could achieve growth inhibition of wild-type E. coli using MAC-0452936 and an antibiotic adjuvant. […] To that end, we determined the MIC of MAC-0452936 against wild-type E. coli in the presence and absence of a sub-MIC concentration of SPR741 (Figure S8B). […] We leveraged this combination to characterize the spectrum of activity of MAC-0452936 against a panel of Gram-negative pathogens (Table 2). In the presence of 8 μg/mL SPR741, we observed MAC-0452936 activity against the clinical E. coli isolates C0244 and CFT073 at 2 μg/mL as well as against Salmonella Typhimurium SL1344 at 4 μg/mL.
(§2) For MIC assays, cultures of bacteria were grown in LB broth. Overnight cultures were diluted (1:100) into fresh LB media and grown to the mid-log phase of growth (OD600 ∼0.5). Subcultures were then normalized to an OD600 of 0.1, and diluted (1:5000) into assay media. Assay plates were then incubated for 18 h at 37°C, then OD600 was measured using a Biotek Neo plate reader.

[4] = test system: K. aerogenes CO045; assay: MIC assay with or without SPR741, K. aerogenes; assay type: cell-based, Klebsiella aerogenes; conditions: for MIC: Klebsiella aerogenes
Description: as §1, §2

COc1ccc(C(=O)O/N=C(\c2cccs2)C(C)(C)C)cc1 [MAC-0452936, (Z)-2-Pivaloylthiophene O-(4-methoxybenzoyl) oxime]
frequency of resistance [1]: 2 x 10^−8
resistant isolates identified [1]: five independent resistant isolates were generated
effect on cell width and morphology [2]: dose-dependent increase in cell width
MIC ([3]; CFT073, read-out: MIC, E. coli CFT073 + 8 μg/mL SPR741): 2 µg/mL
MIC ([3]; CFT073, read-out: MIC, E. coli CFT073 + 0 μg/mL SPR741): > 64 µg/mL
MIC, K. aerogenes CO045 + 8 μg/mL SPR741 ([4]; 8 μg/mL SPR741): did not observe MAC-0452936 activity
MIC ([4]; CO045, read-out: MIC, K. aerogenes CO045 + 8 μg/mL SPR741): > 64 µg/mL
MIC ([4]; CO045, read-out: MIC, K. aerogenes CO045 + 0 μg/mL SPR741): > 64 µg/mL
